Results taken from US9827219B2, “Compositions and methods for lowering levels of high-sensitivity C-reactive protein (HS-CRP) in a subject” (priority 2012, dated 2017).

Key:
Assay type in all cases: in vivo, human
[1] = tested on: Non-HDL-C; assay: Non-HDL-C in patients with diabetes mellitus-2 (Example 2); conditions: 4 g/day, 12 weeks, on statin
Method: The effect of >96% E-EPA on lipid and inflammatory parameters was evaluated in patients with fasting triglyceride levels ≧150 mg/dl and <499 mg/dl on concomitant statin therapy. Patients with diabetes mellitus-2 were randomized and treated with either 2 g/day >96% E-EPA, 4 g/day >96%, or placebo for twelve weeks. At the end of the treatment period, several diabetes efficacy endpoints were evaluated including, TG, LDL-C, non-HDL-C, VLDL-C, Lp-PLA2, Apo B, TC, HDL-C, VLDL-TG, hs-CRP, oxLDL, and RLP-C.

[2] = tested on: Apo B; assay: Apo B in patients with diabetes mellitus-2 (Example 2); conditions: 4 g/day, 12 weeks, on statin
Description: Parameters (a)-(y) can be measured in accordance with any clinically acceptable methodology. For example, triglycerides, total cholesterol, HDL-C and fasting blood sugar can be sample from serum and analyzed using standard photometry techniques. VLDL-TG, LDL-C and VLDL-C can be calculated or determined using serum lipoprotein fractionation by preparative ultracentrifugation and subsequent quantitative analysis by refractometry or by analytic ultracentrifugal methodology. Apo A1, Apo B and hsCRP can be determined from serum using standard nephelometry techniques. Lipoprotein (a) can be determined from serum using standard turbidimetric immunoassay techniques. LDL particle number and particle size can be determined using nuclear magnetic resonance (NMR) spectrometry. Remnants lipoproteins and LDL-phospholipase A2 can be determined from EDTA plasma or serum and serum, respectively, using enzymatic immunoseparation techniques. Oxidized LDL, intercellular adhesion molecule-1 and interleukin-2 levels can be determined from serum using standard enzyme immunoassay techniques. These techniques are described in detail in standard textbooks, for example Tietz Fundamentals of Clinical Chemistry, 6th Ed. […]
The effect of >96% E-EPA on lipid and inflammatory parameters was evaluated in patients with fasting triglyceride levels ≧150 mg/dl and <499 mg/dl on concomitant statin therapy. […]

[3] = tested on: Lp-PLA2; assay: ANCHOR study, Lp-PLA2; conditions: ANCHOR ITT, week 12
Description: Parameters (a)-(y) can be measured in accordance with any clinically acceptable methodology. For example, triglycerides, total cholesterol, HDL-C and fasting blood sugar can be sample from serum and analyzed using standard photometry techniques. VLDL-TG, LDL-C and VLDL-C can be calculated or determined using serum lipoprotein fractionation by preparative ultracentrifugation and subsequent quantitative analysis by refractometry or by analytic ultracentrifugal methodology. Apo A1, Apo B and hsCRP can be determined from serum using standard nephelometry techniques. Lipoprotein (a) can be determined from serum using standard turbidimetric immunoassay techniques. LDL particle number and particle size can be determined using nuclear magnetic resonance (NMR) spectrometry. Remnants lipoproteins and LDL-phospholipase A2 can be determined from EDTA plasma or serum and serum, respectively, using enzymatic immunoseparation techniques. Oxidized LDL, intercellular adhesion molecule-1 and interleukin-2 levels can be determined from serum using standard enzyme immunoassay techniques. These techniques are described in detail in standard textbooks, for example Tietz Fundamentals of Clinical Chemistry, 6th Ed. (Burtis, Ashwood and Borter Eds.), WB Saunders Company.
A multi-center, placebo-controlled, randomized, double-blind, 12-week study was performed to evaluate the efficacy and safety of >96% E-EPA in patients with fasting triglyceride levels ≧200 mg/dl and <500 mg/dl despite statin therapy (the mean of two qualifying entry values needed to be ≧185 mg/dl and at least one of the values needs to be ≧200 mg/dl). The primary objective of the study was to determine the efficacy of >96% E-EPA 2 g daily and 4 g daily, compared to placebo, in lowering fasting TG levels in patients with high risk for cardiovascular disease and with fasting TG levels ≧200 mg/dL and <500 mg/dL, despite treatment to LDL-C goal on statin therapy. […]

[4] = well-controlled diabetes (HbA1c < median of 6.8%)

CC/C=C\C/C=C\C/C=C\C/C=C\C/C=C\CCCC(=O)OCC [AMR101, all-cis eicosa-5,8,11,14,17-pentaenoic acid ethyl ester]
Median placebo-adjusted percent change in Non-HDL-C from baseline to study end ([1]; less-controlled diabetes (HbA1c ≧ median of 6.8%)): −18.0%
Median placebo-adjusted percent change in Non-HDL-C from baseline to study end ([1]; total diabetes): −14.4%
Median placebo-adjusted percent change in Non-HDL-C from baseline to study end [1, 4]: −11.3%
Median placebo-adjusted percent change in Apo B from baseline to study end ([2]; total diabetes): −9.5%
Median placebo-adjusted percent change in Apo B from baseline to study end [2, 4]: −6.1%
Lp-PLA2 change from baseline (median) ([3]; 2 g/day): −1.8%
Lp-PLA2 change from baseline (median) ([3]; 4 g/day): −12.8%
Lp-PLA2 end-of-treatment value (median) ([3]; 4 g/day): 160.0 ng/mL
